Measured values taken from US20260337190A1, “CRYSTAL FORM OF PYRIDINOPYRIMIDINONE COMPOUND, ACID SALT THEREOF, CRYSTAL FORM OF ACID SALT THEREOF, AND USE” (Wuhan Humanwell Innovative Drug Research and Development …, priority 2022, published 2026).
Where a name gives a salt, the structure may show the parent alone.

Tests used:
[1] = Solid state stability (25 °C/60% RH and 40 °C/75% RH, one week; XRPD and HPLC); assay type: physicochemical; details: for solid state stability: open condition, one week, 25 °C/60% RH and 40 °C/75% RH
Method: The purity test, dynamic solubility test, and stability test in the assay were measured with an Agilent 1260 high-performance liquid chromatograph, and the salt formation molar ratio of ions was tested by ion chromatography, and the analytical conditions are shown in Table 5 and Table 6.

[2] = Dynamic solubility in water, SGF, FaSSIF and FeSSIF; assay type: physicochemical; details: for solubility in water, SGF, FaSSIF and FeSSIF: 10 mg/mL feed, 1, 4, 24 hours; for change in crystal form after solubility test: XRPD after solubility test
Method: Purified water was added to complete dissolution.

[3] = Hygroscopicity by dynamic vapor sorption (DVS); assay type: physicochemical; details: 25 °C
Method: The dynamic vapor sorption (DVS) curve was collected on DVS IntrInsic from SMS (surface measurement systems). The relative humidity at 25 °C was corrected using the deliquescence points of LiCl, Mg(NO3)2, and KCl.
Starting from 0% RH or room humidity, the test collected the mass change percentage of the sample as the humidity changed (0% RH to 95% RH) under constant temperature conditions of 25 °C The results of the DVS test and the XRPD results of the samples before and after the DVS test are shown in FIG. 113 to FIG. 122.

[4] = Variable temperature XRPD (VT-XRPD) of crystal forms; assay type: physicochemical; details: for crystal form on heating to 150 °C: N2, heated to 150 °C and cooled; for crystal form on N2 purging: purged with N2 for 20 minutes; for crystal form on exposure to air: exposed to air after N2 purging/heating
From the text: The XRPD pattern was collected on an X-ray powder diffraction analyzer produced by PANalytacal, and the scanning parameters are shown in Table 2.
The crystal form A of the compound of formula I of Example 2 was identified using variable temperature XRPD (VT-XRPD).

[5] = Influence of vacuum drying on crystal form A (XRPD, HPLC purity); assay type: physicochemical; details: vacuum drying 60 °C/80 °C, 4 hours
Method: In order to evaluate the influence of the drying conditions on the crystal form A of the compound of formula I, the changes of the sample before and after vacuum drying of the crystal form A of the compound of formula I under the condition of 60 °C/80 °C for 4 hours were respectively investigated. The XRPD, ^1H NMR, and HPLC purity of the dried sample were tested.

[6] = Human liver microsome stability; assay type: in vitro ADME; details: human liver microsomes, 30 min, 37 °C, NADPH; read-out: Remaining percentage of compound after incubation for 30 min
Method: The human liver microsome stability test was performed by incubating the compound and human liver microsomes in vitro. First, the compound to be tested was prepared into a 10 mM stock solution in DMSO solvent, and then the compound was diluted to 0.5 mM with acetonitrile. Human liver microsomes (Corning) were diluted with PBS into a microsome/buffer solution, and the solution was used to dilute 0.5 mM compound into a working solution, in which the concentration of the compound was 1.5 μM, and the concentration of human liver microsomes was 0.75 mg/mL. A deep-well plate was taken, 30 μL of the working solution was added per well, and then 15 μL of pre-heated 6 mM NADPH solution was added thereto to initiate a reaction, and the reaction was incubated at 37 °C At 0, 5, 15, 30, and 45 min of the incubation, 135 μL of acetonitrile was added to the corresponding wells to terminate the reaction. After the reaction was terminated with acetonitrile at the last time point of 45 min, the deep-well plate was vortexed for 10 min (600 rpm/min), and then centrifuged for 15 min. After centrifugation, the supernatant was collected, and added with purified water in a ratio of 1:1 to perform LC-MS/MS detection. A ratio of a peak area of compound to a peak area of internal standard at each time point was obtained, and the peak area ratios of the compound at 5, 15, 30, and 45 min were compared with the peak area ratio at 0 min to calculate the remaining percentage of the compound at each time point. T1/2 was calculated by using GraphPad 5 software.

SMILES	HPLC results Purity (solid state stability) ([1]; 25 °C/60% RH/open, 1 week) [area %]	HPLC results Purity (solid state stability) ([1]; 40 °C/75% RH/open, 1 week) [area %]	HPLC results Purity (solid state stability) ([1]; Onset) [area %]	pH of filtrate ([2]; FaSSIF, 1 hour, 37 °C)	pH of filtrate ([2]; FaSSIF, 4 hours, 37 °C)	pH of filtrate ([2]; FaSSIF, 24 hours, 37 °C)	pH of filtrate ([2]; FeSSIF, 1 hour, 37 °C)	pH of filtrate ([2]; FeSSIF, 4 hours, 37 °C)	pH of filtrate ([2]; FeSSIF, 24 hours, 37 °C)	pH of filtrate ([2]; H2O, 1 hour, 37 °C)	pH of filtrate ([2]; H2O, 4 hours, 37 °C)	pH of filtrate ([2]; H2O, 24 hours, 37 °C)	pH of filtrate ([2]; SGF, 1 hour, 37 °C)	pH of filtrate ([2]; SGF, 4 hours, 37 °C)	pH of filtrate ([2]; SGF, 24 hours, 37 °C)	also measured
Cc1nc(N[C@H](C)c2cccc(S(F)(F)(F)(F)F)c2)c2cn(C3(CF)CC3)c(=O)cc2n1 [Crystal form A ethanesulfonate salt]	99.15	99.29	99.10													
Cc1nc(N[C@H](C)c2cccc(S(F)(F)(F)(F)F)c2)c2cn(C3(CF)CC3)c(=O)cc2n1 [crystal form A of the methanesulfonate salt of the compound ]																solubility in water, SGF, FaSSIF and FeSSIF ([2]; 37 °C): high solubility; hygroscopicity ([3]; 0% RH to 95% RH): slightly hygroscopic; solid state stability [1]: good stability; crystal form on heating to 150 °C [4]: no change in the crystal form was observed
Cc1nc(N[C@H](C)c2cccc(S(F)(F)(F)(F)F)c2)c2cn(C3(CF)CC3)c(=O)cc2n1 [Crystal form A fumarate salt]	98.67	98.70	98.67													
Cc1nc(N[C@H](C)c2cccc(S(F)(F)(F)(F)F)c2)c2cn(C3(CF)CC3)c(=O)cc2n1 [Crystal form A of ethanesulfonate salt]				4.5	4.2	3.7	4.8	4.8	4.7	2.9	3.1	2.8	1.6	1.5	1.5	S: solubility ([2]; FaSSIF, 4 hours, 37 °C, 240 min): 1610 µg/mL; S: solubility ([2]; FeSSIF, 4 hours, 37 °C, 240 min): 3620 µg/mL; S: solubility ([2]; H2O, 1 hour, 37 °C, 60 min): 10060 µg/mL; S: solubility ([2]; H2O, 4 hours, 37 °C, 240 min): 9810 µg/mL; S: solubility ([2]; H2O, 24 hours, 37 °C, 1440 min): 10080 µg/mL; S: solubility ([2]; SGF, 4 hours, 37 °C, 240 min): 10130 µg/mL; S: solubility ([2]; SGF, 24 hours, 37 °C, 1440 min): 10110 µg/mL
Cc1nc(N[C@H](C)c2cccc(S(F)(F)(F)(F)F)c2)c2cn(C3(CF)CC3)c(=O)cc2n1 [Crystal form A of fumarate salt]				4.8	4.6	4.3	4.6	4.8	4.7	4.2	4.2	4.1	1.8	2.0	1.7	solubility at 1 h ([2]; fessif, 1 hour, 37 °C, read-out: S: solubility): 3510 µg/mL; solubility at 4 h ([2]; fessif, 4 hours, 37 °C, read-out: S: solubility): 2390 µg/mL; solubility at 24 h ([2]; fessif, 24 hours, 37 °C, read-out: S: solubility): 2180 µg/mL
Cc1nc(N[C@H](C)c2cccc(S(F)(F)(F)(F)F)c2)c2cn(C3(CF)CC3)c(=O)cc2n1 [Crystal form A of compound of formula I]				6.3	6.3	6.4	5.1	5.1	5.1	5.4	6.0	5.8	3.2	3.3	3.2	S: solubility ([2]; FeSSIF, 1 hour, 37 °C, 60 min): 2720 µg/mL
Cc1nc(N[C@H](C)c2cccc(S(F)(F)(F)(F)F)c2)c2cn(C3(CF)CC3)c(=O)cc2n1 [crystal form A of the compound of formula I]																solubility in water, SGF, FaSSIF and FeSSIF ([2]; 37 °C): high solubility; change in crystal form after solubility test [2]: no change in crystal form is observed; moisture behaviour higher than 10% RH [3]: absorb more moisture and gain more weight with the increase of humidity; moisture behaviour lower than 10% RH [3]: rapidly dehydrate; solid state stability [1]: good stability; change in purity before and after drying (HPLC) [5]: no significant change in purity was observed; crystal form after vacuum drying ([5]; exposure to 19 °C/27% RH 10-15 min): still the crystal form A of the compound of formula I; crystal form on N2 purging [4]: transformed into a new crystal form B
Cc1nc(N[C@H](C)c2cccc(S(F)(F)(F)(F)F)c2)c2cn(C3(CF)CC3)c(=O)cc2n1 [Crystal form A methanesulfonate salt]	99.21	99.26	99.18													
Cc1nc(N[C@H](C)c2cccc(C(F)(F)F)c2C)c2cn(C3(CF)CC3)c(=O)cc2n1 [Control compound 1, reference compound]																remaining at 0.5 h [6]: 70.2%
Cc1nc(N[C@H](C)c2cccc(S(F)(F)(F)(F)F)c2)c2cn(C3(CF)CC3)c(=O)cc2n1 [Crystal form A compound formula I]	97.13	97.14	97.06													
Cc1nc(N[C@H](C)c2cccc(S(F)(F)(F)(F)F)c2)c2cn(C3(CF)CC3)c(=O)cc2n1 [crystal form A of the fumarate salt of the compound of formu]																solubility in water, SGF, FaSSIF and FeSSIF ([2]; 37 °C): high solubility; change in crystal form after solubility test [2]: no change in crystal form is observed; moisture behaviour higher than 10% RH [3]: absorb more moisture and gain more weight with the increase of humidity; moisture behaviour lower than 10% RH [3]: rapidly dehydrate; solid state stability [1]: good stability; crystal form on heating to 150 °C [4]: No change in the crystal form was observed; crystal form on exposure to air [4]: transcrystallized back to the crystal form A of the fumarate salt; crystal form on N2 purging [4]: a peak shift was observed
Cc1nc(N[C@H](C)c2cccc(S(F)(F)(F)(F)F)c2)c2cn(C3(CF)CC3)c(=O)cc2n1 [crystal form B of the compound of formula I]																crystal form on exposure to air [4]: transcrystallized back to the crystal form A; crystal form on heating to 100 °C and cooling to 30 °C ([4]; under N2, 100 °C, cooled to 30 °C): No crystal change was observed

The next lines start with results.

HPLC results Purity (solid state stability) ([1]; 25 °C/60% RH/open, 1 week) [area %]	HPLC results Purity (solid state stability) ([1]; 40 °C/75% RH/open, 1 week) [area %]	HPLC results Purity (solid state stability) ([1]; Onset) [area %]	pH of filtrate ([2]; FaSSIF, 1 hour, 37 °C)	pH of filtrate ([2]; FaSSIF, 4 hours, 37 °C)	pH of filtrate ([2]; FaSSIF, 24 hours, 37 °C)	pH of filtrate ([2]; FeSSIF, 1 hour, 37 °C)	pH of filtrate ([2]; FeSSIF, 4 hours, 37 °C)	pH of filtrate ([2]; FeSSIF, 24 hours, 37 °C)	pH of filtrate ([2]; H2O, 1 hour, 37 °C)	pH of filtrate ([2]; H2O, 4 hours, 37 °C)	pH of filtrate ([2]; H2O, 24 hours, 37 °C)	pH of filtrate ([2]; SGF, 1 hour, 37 °C)	pH of filtrate ([2]; SGF, 4 hours, 37 °C)	pH of filtrate ([2]; SGF, 24 hours, 37 °C)	SMILES	also measured
99.00	99.01	98.92													Cc1nc(N[C@H](C)c2cccc(S(F)(F)(F)(F)F)c2)c2cn(C3(CF)CC3)c(=O)cc2n1 [Crystal form B citrate salt]	
			4.5	3.9	3.6	4.8	4.6	4.5	3.5	3.5	3.3	2.5	2.6	2.4	Cc1nc(N[C@H](C)c2cccc(S(F)(F)(F)(F)F)c2)c2cn(C3(CF)CC3)c(=O)cc2n1 [Crystal form B of citrate salt]	
			4.3	4.4	4.0	4.8	4.8	4.8	3.5	3.5	3.1	1.7	1.8	1.6	Cc1nc(N[C@H](C)c2cccc(S(F)(F)(F)(F)F)c2)c2cn(C3(CF)CC3)c(=O)cc2n1 [Crystal form A of methanesulfonate salt]	S: solubility ([2]; FeSSIF, 1 hour, 37 °C, 60 min): 4040 µg/mL
